Columns and labels:
[1] = test system: integrins from CD4hi cells (CD4+CD40−); assay: KGYY15 immunoprecipitation with western blot, CD4hi cells; assay type: binding, mouse; settings: αL more prominently from autoimmune NOD and αD from control Balb/c cells
From the text: (§1) FIG. 10A, FIG. 10B, FIG. 10C-1, FIG. 10C-2, FIG. 10D, FIG. 10E, FIG. 10F, FIG. 10G, FIG. 10H-1, FIG. 10H-2, FIG. 10I, FIG. 10J-1, FIG. 10J-2, and FIG. 10J-3 provide blots, tables, graphs, charts, and plots related to additional biomarkers, receptors, and peptides that may bind thereto. The blots of FIG. 10A, FIG. 10B, FIGS. 10C-1, 10C-2 and FIG. 10D provide immunoprecipitation results of western blots. […] FIG. 10E provides a table of when KGYY15 eluates from mouse PBMR, MHCII+, CD4hi or CD4lo cells in protein sequencing, for integrins and proteins listed in FIG. 10E. FIG. 10F provides results of a western blot when 3 different CD40 antibodies were used in immunoprecipitations on cells that had been incubated with mKGYY15-biotin prior to lysis. FIG. 10H-1 and FIG. 10H-2, FIG. 10I, and FIG. 10J-1, FIG. 10J-2, and FIG. 10J-3 provide additional binding tests and studies that were done regarding peptides of KGYY-4, KGYY-6, and KGYY6-Val.

[2] = test system: integrins from CD4lo cells (CD4loCD40+; Th40); assay: KGYY15 immunoprecipitation with western blot, CD4lo cells; assay type: binding, mouse
From the text: as §1

For “VLQWAKKGYYTMKSN [KGYY15, 15-mer CD154-derived peptide around the KGYY core]”, the “integrins immunoprecipitated from CD4hi cells” value [1] was “immunoprecipitated primarily αL, αD and β2”, the β3 immunoprecipitation ([2]; cell population not stated) was “not β3” and the “integrins immunoprecipitated from CD4lo cells” value ([2]; more prominently from autoimmune NOD cells than from control Balb/c cells) was “immunoprecipitated primarily αM, αD and β2”. For the same sequence, the CD11a immunoprecipitation ([2]; several differentially glycosylated (presumably) bands) was “immunoprecipitated but only from NOD CD4lo cells”.

Reference: patent US20200326333A1, “DIAGNOSIS AND TREATMENT OF AUTOIMMUNE DISEASES” (OP-T LLC, priority 2019, published 2020)
